This is an account of results in patent US9388163B2, “Multifunctional radical quenchers for the treatment of mitochondrial dysfunction” (Arizona Board of Regents, a Body Corporate of the State of …, priority 2011, dated 2016).

The subject of one experiment is leukemia CEM lymphocytes. Description: Suppression of lipid peroxidation (C11-BODIPY 581/591, FACS) in DEM-treated cells. Format: cell-based. The following applies: CEM cells treated with DEM, untreated control 100, treated control 0. Here is the method: Leukemic CEM cells (ATCC®, catalogue number CRL-2264) were cultured in RPMI (GIBCO, Grand island, NY, USA) with 10% FBS (Fisher Scientific, TX, USA), 2 mM glutamine (HyClone, South Logan, Utah, USA) and 1% penicillin-streptomycin mix antibiotics (Cellgro, Manassas, Va., USA) supplements. Cells were maintained in the log phase at a concentration of between 1×10^5 and 1×10^6 cells/mL.
Measurement of C11-BODIPY^581/591 Oxidation in Cell Culture
Lipid peroxidation in cells was detected by utilizing the oxidant-sensitive lipophilic probe C11 BODIPY^581/591. […] Cells were treated with 500 nM C11 BODIPY^581/591 in phenol red-free RPMI-1640 media and incubated at 37° C. in the dark for 30 minutes. The cells were washed twice with phosphate buffered saline and oxidative stress was induced with 5 mM DEM in phenol red-free RPMI-1640 media for 90 minutes. Treated cells were collected by centrifugation at 300×g for 3 minutes and then washed twice with phosphate buffered saline. Cells were re-suspended in 250 μL of phosphate buffered saline and were analyzed by FACS (FACS Calibur flow cytometer, Becton Dickinson) to monitor the change in intensity of the C11 BODIPY^581/591 green (oxidized) fluorescence signal.

For another experiment, the system named is FRDA cell line. In words: Trypan blue exclusion cell viability assay, DEM-stressed cells. The following applies: FRDA cells stressed with DEM. Format: cell-based. How it is done: Friedreich's Ataxia lymphocytes and control cells (Coriell, catalogue number […], respectively) were cultured in RPMI (GIBCO, Grand island, NY, USA) with 15% FBS (Fisher Scientific, TX, USA), 2 mM glutamine (HyClone, South Logan, Utah, USA) and 1% penicillin-streptomycin mix antibiotics (Cellgro, Manassas, Va., USA) supplements. Cells were maintained in the log phase at a concentration of between 1×10^5 and 1×10^6 cells/mL.
V. Trypan Blue Cell Viability Assay
Cell viability determined by trypan blue exclusion assay: This technique was used to assess the cytoprotective effects of the invention compounds in cultured cells pharmacologically treated to induce cell death by GSH depletion. DEM was used to deplete cellular GSH and induce oxidative stress. The viability of DEM-treated cells was determined by their ability to exclude the dye trypan blue. Viable cells exclude trypan blue; whereas, non-viable cells take up the dye and stain blue. Briefly, cells were seeded at a density of 1×10^6 cells/mL and treated with different concentrations of the invention compounds. Cells were incubated at 37° C. in a humidified atmosphere of 5% CO2 in air for three hours with 5 mM DEM. Cell viability was determined by staining cells with 0.4% trypan blue using a hemocytometer. At least 500 cells were counted for each experimental group. At the time of assay, >95% of DEM-treated cells were trypan blue positive; whereas, in non-DEM treated control cell cultures >95% cells were viable. Cell viability was expressed as the percentage of control. Data are expressed as means±S.E.M (n=3).

One may read the viability as the share of living cells, or the viability signal relative to a control. A lower viability goes with more harm to the cells. For the compound `CCCCCCCc1c(C)n(O)c(C)c(Cl)c1=O` [CPD-12, 3-chloro-5-heptyl-1-hydroxy-2,6-dimethylpyridin-4(1H)-one], in the experiment on leukemia CEM lymphocytes (1 μM), the “Scavenging activity (%) (lipid peroxidation)” value (“Scavenging activity (%)” below) turned out to be 0%. Further, in the experiment on leukemia CEM lymphocytes (5 μM), the “Scavenging activity (%)” value was 0%. Further, in the experiment with FRDA cell line, the viability at 0.1 µM is 15 ± 6%, the viability at 0.5 µM stood at 29 ± 3% and the viability at 2.5 µM stood at 39 ± 3%.
For `CCCCCCCCCCCCCCCCc1c(C)n(O)c(C)c(Br)c1=O` [CPD-11, 3-bromo-5-hexadecyl-1-hydroxy-2,6-dimethylpyridin-4(1H)-one], the “Scavenging activity (%)” value with leukemia CEM lymphocytes (1 μM) was 7 ± 2.3%. Also, the “Scavenging activity (%)” value in the experiment with leukemia CEM lymphocytes (5 μM) is given as 15 ± 3.3%. Further, in the experiment on FRDA cell line, the viability at 0.1 µM came to 12 ± 5%, the viability at 0.5 µM turned out to be 6 ± 3% and the viability at 2.5 µM turned out to be 8 ± 3%.
Consider `CCCCCCCc1c(C)n(O)c(C)c(Br)c1=O` [CPD-9, 3-bromo-5-heptyl-1-hydroxy-2,6-dimethylpyridin-4(1H)-one], for which the “Scavenging activity (%)” value in the experiment with leukemia CEM lymphocytes (1 μM) is recorded as 0%. The “Scavenging activity (%)” value with leukemia CEM lymphocytes (5 μM) is on record as 0%. In the experiment on FRDA cell line, this compound displayed a viability at 0.1 µM of 31 ± 12%, a viability at 0.5 µM of 28 ± 7% and a viability at 2.5 µM of 32 ± 5%.
Consider `CCCCCCCc1c(C)n(O)c(C)cc1=O` [CPD-6, 3-heptyl-1-hydroxy-2,6-dimethylpyridin-4(1H)-one], for which the “Scavenging activity (%)” value with leukemia CEM lymphocytes (1 μM) is reported as 0%. The “Scavenging activity (%)” value in the experiment with leukemia CEM lymphocytes (5 μM) is listed as 0%. In the experiment on FRDA cell line, this compound displayed a viability at 0.1 µM of 27 ± 7%, a viability at 0.5 µM of 30 ± 13% and a viability at 2.5 µM of 24 ± 6%.
Regarding `CCCCCCCCCCc1c(C)n(O)c(C)cc1=O` [CPD-7, 3-decyl-1-hydroxy-2,6-dimethylpyridin-4(1H)-one], in the experiment with leukemia CEM lymphocytes (1 μM), the “Scavenging activity (%)” value is 0%. For the same compound, in the experiment with leukemia CEM lymphocytes (5 μM), the “Scavenging activity (%)” value was 0%. In the experiment with FRDA cell line, this compound registered a viability at 0.1 µM of 36 ± 6%, a viability at 0.5 µM of 14 ± 5% and a viability at 2.5 µM of 20 ± 3%.
Consider `CCCCCCCCCCc1c(C)n(O)c(C)c(Br)c1=O` [CPD-10, 3-bromo-5-decyl-1-hydroxy-2,6-dimethylpyridin-4(1H)-one], for which the “Scavenging activity (%)” value in the experiment on leukemia CEM lymphocytes (1 μM) is given as 0%. In the experiment on leukemia CEM lymphocytes (5 μM), the “Scavenging activity (%)” value worked out at 0%. In the experiment with FRDA cell line, the viability at 0.1 µM is 19 ± 6%, the viability at 0.5 µM came to 20 ± 13% and the viability at 2.5 µM came out at 32 ± 8%.
`CCCCCCCCCCCCCCCCc1c(C)n(O)c(C)cc1=O` [CPD-8, 3-hexadecyl-1-hydroxy-2,6-dimethylpyridin-4(1H)-one]: the “Scavenging activity (%)” value in the experiment with leukemia CEM lymphocytes (1 μM) was found to be 10 ± 4.3%. Also, the “Scavenging activity (%)” value in the experiment on leukemia CEM lymphocytes (5 μM) amounted to 20 ± 3.4%. Moreover, in the experiment on FRDA cell line, the viability at 0.1 µM was 19 ± 6%, the viability at 0.5 µM was 15 ± 5% and the viability at 2.5 µM is 18 ± 2%.
`CCCCCCCCCCc1c(C)n(O)c(C)c(Cl)c1=O` [CPD-13, 3-chloro-5-decyl-1-hydroxy-2,6-dimethylpyridin-4(1H)-one]: in the experiment on leukemia CEM lymphocytes (1 μM), the “Scavenging activity (%)” value is 0%. Also, the “Scavenging activity (%)” value in the experiment with leukemia CEM lymphocytes (5 μM) worked out at 0%. In the experiment with FRDA cell line, this compound came in with a viability at 0.1 µM of 17 ± 3%, a viability at 0.5 µM of 14 ± 2% and a viability at 2.5 µM of 19 ± 5%.
